Source: patent publication US5498632A, “Esters of acyl carnitines with long-chain aliphatic alcohols and pharmaceutical compositions containing same having antibacterial activity” (Sigma-Tau Industrie Farmaceutiche Riunite S.p.A., priority 1992, dated 1996)

Key:
[1] = tested on: antibody-producer B lymphocytes (spleen of SRBC immunized mice); assay: Test 1: primary antibody production (Jerne test) in spleen of SRBC immunized mice; assay type: in vivo, mouse (male B6 D2 F1)
Experimental: Evaluation of the "in vitro-ex vivo" effect of repeated oral administrations of ST 722 on the primary antibody production (Jerne test) in the spleen of SRBC (Sheep Red Blood Cells) immunized mice.
Male B6 D2 F1 mice (C. River) aged 8 weeks (6 animals each group) were utilized.
The substance (ST 722) was administered per os at the dose of 100 mg/kg/day from day -2 through day +2 (immunization at day 0).
The animals were immunized by intraperitoneal route with a concentration of 1.0×10^8 cells/mouse in 0.2 ml of sterile saline.
Five days later, spleens to be submitted to teasing process were removed from the animals sacrificed by cervical dislocation.
After standardization at 1.0×10^7 cells/ml, the splenocytes (0.1 ml) were mixed with warm agar-Hank's (2 ml) and 10% SRBC in PBS (0.2 ml) and seeded in Petri dishes (samples tested in triplicates) and incubated at 37° C. for 60 min.
After addition of complement (2 ml of guinea pig serum diluted 1:10 in Tris buffer), samples were further incubated at 37° C. for 30 min.
To block the haemolysis reaction, the Petri dishes were cooled at 4° C. and the haemolysis plaques were counted.
The antibody response to SRBC is expressed as number of plaque forming cells (PFC) per 1.0×10^6 splenocytes as well as per spleen.

[2] = tested on: lymphoid organs (spleen and thymus), splenocytes; assay: Test 3: body, spleen and thymus weight and splenocyte concentration; assay type: in vivo, mouse (male B6 D2 F1); details: 100 mg/kg/day for 5 consecutive days, oral
Experimental: Evaluation of the effect of repeated oral administrations of ST 722 on the body, spleen and thymus weight, and on the splenocyte concentration in mice.
Male B6 D2 F1 mice (C. River) aged 10 weeks (5 animals each group) were orally treated with the substance ST 722 at the dose of 100 mg/kg/day for 5 consecutive days. Twenty-four hours after the last administration, the animals were sacrificed, the organs removed and weighed, and the splenocyte number determined.

[3] = tested on: Campylobacter coli LI 048; assay: MIC in agar (agar dilution); assay type: cell-based
Experimental: (§1) In this experiment the activity of ST 722 and ST 712 against Campylobacter and Helicobacter was investigated.
(§2) Campylobacter fetus ATCC 27374, Campylobacter coli LI 048, Campylobacter jejuni 84-ISS, and Helicobacter pylori NCTC 11637.
(§3) The culture medium was Columbia agar base supplemented with 7% (V/V) defribinated horse blood (DHB) for Campylobacter strains, and the same medium additioned with Vitox (Oxoid) for Helicobacter strain.
(§4) The Campylobacter and Helicobacter strains, preserved at -80° C. in DHB containing 10% (V/V) glycerol, were thawed and grown, in their respective culture medium, in culture flasks, which were incubated for 48 hours at 37° C. in a 10% CO2 atmosphere. After this first growth cycle, the bacteria were allowed to go through a second growth cycle in the same conditions as above.
(§5) The bacterial "patina" was then harvested by resuspension in 4-5 ml of Mueller-Hinton broth, the turbidity of which was then assessed according to Mc Farland's criteria (BRAY W. E., Clinical Laboratory Methods, 5th Ed. C. V. MOSBY, St. Louis, Mo. 1957).
(§6) The Helicobacter suspension was adjusted to an approximate concentration of 1.0×10^9 and 1.0×10^8 organisms/ml, while the Campylobacter suspension was adjusted to 1.0×10^7 and 1.0×10^6 organisms/ml.
(§7) With a Steers-type multipoint inoculator (STEERS E., FOLTZ E. L., GRAVES S., RIDEN J., 1959. Inocula-replicating apparatus for routine testing of antibacterial susceptibility to antibiotics. Antibiot. Chemoter. 9: 307-311) 1-μl volumes of the above standardized suspensions were spot-transferred into the wells of a 96-well microtiter plate, which had previously been filled with 0.2 ml/well of Mueller-Hinton agar 5% DHB, containing the test substances at different concentrations.
(§8) The plates was then incubated for 48/72 hours at 37° C. in a 10% CO2 atmosphere.

[4] = tested on: Campylobacter fetus ATCC 27374; assay: MIC in agar (agar dilution); assay type: cell-based
Experimental: as §1, §2, §3, §4, §5, §6, §7, §8

[5] = tested on: Campylobacter jejuni 84-ISS; assay: MIC in agar (agar dilution); assay type: cell-based
Experimental: as §1, §2, §3, §4, §5, §6, §7, §8

[6] = 100 mg/kg/day per os, day -2 through day +2, mean ± S.E.

SMILES: CCCCCCCCCCCOC(=O)CC(C[N+](C)(C)C)OC(=O)CC(C)C [ST 722, Isovaleryl-L-Carnitine Undecyl Ester Chloride]
- toxic effect on weight of the lymphoid organs (spleen and thymus) ([1]; 100 mg/kg/day per os): did not show values relating to a toxic effect
- Body weight [1, 6]: 25.12 g
- PFC/10^6 cells [1, 6]: 261 ± 34 PFC/10^6 cells
- PFC/spleen [1, 6]: 44440 PFC/spleen
- Spleen weight [1, 6]: 94.33 mg
- Thymus weight [1, 6]: 59.50 mg
- modification in PFC number after the antigenic challenge ([1]; repeated (5 consecutive days) oral administrations): did not cause a statistically significant modification in PFC number
- Body weight [2]: 26.50 ± 0.53 g
- Spleen weight [2]: 73.25 ± 3.84 mg
- Thymus weight [2]: 38.80 ± 3.01 mg
- specific immunotoxic effects on the considered parameters [2]: lack of specific immunotoxic effects
- MIC ([3]; Campylobacter coli, LI048, I = inoculum of 1.0 × 10^3): 3.12 µg/mL
- MIC in agar ([3]; II = inoculum of 1.0 × 10^4): 3.12 µg/mL
- MIC ([4]; Campylobacter fetus, ATCC27374, I = inoculum of 1.0 × 10^3): 100 µg/mL
- MIC in agar ([4]; II = inoculum of 1.0 × 10^4): 100 µg/mL
- MIC ([5]; I = inoculum of 1.0 × 10^3): 12.5 µg/mL
- MIC ([5]; II = inoculum of 1.0 × 10^4): 12.5 µg/mL
